Results published in patent publication US5441875A, “Urea transporter polypeptide” (Brigham and Women's Hospital, priority 1993, dated 1995).
Like-named read-outs stand apart in the source and are kept apart here. Blank lines part the entries; values can stand above or below the molecule they belong to.

What was measured:
[1] = target: T1, urea transporter polypeptide (Oryctolagus cuniculus, UniProt Q28614); test: cell-based; details: for inhibition of urea transport by urea analogues: 150 mM analogue; for effect of cAMP analogues on urea transporter-facilitated urea transport: 30 minute preincubation, 1 mM per analogue; for effect on urea uptake of replacing mannitol in the incubation solution: 100 mM replacing mannitol
T1 sequence (Q28614 1-397): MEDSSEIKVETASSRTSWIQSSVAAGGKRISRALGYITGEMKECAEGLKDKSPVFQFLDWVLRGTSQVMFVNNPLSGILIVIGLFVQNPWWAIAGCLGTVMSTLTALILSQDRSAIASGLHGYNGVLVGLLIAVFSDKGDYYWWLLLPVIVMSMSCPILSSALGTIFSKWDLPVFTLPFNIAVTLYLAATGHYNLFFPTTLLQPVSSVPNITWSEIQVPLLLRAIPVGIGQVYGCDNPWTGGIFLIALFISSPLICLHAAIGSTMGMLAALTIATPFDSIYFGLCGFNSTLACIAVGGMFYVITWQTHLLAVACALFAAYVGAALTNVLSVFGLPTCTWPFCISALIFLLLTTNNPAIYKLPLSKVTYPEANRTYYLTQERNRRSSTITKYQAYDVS
Procedure: (§1) The rabbit kidney medulla mRNA that is size fractionated by the preparative agarose gel electrophoresis was analyzed by oocyte expression assay. Large, fully grown oocytes (stage 5 and 6) with a diameter of 1.2-1.3 mm were hand dissected from ovarian fragments of Xenopus laevis, treated with 2 mg/ml type 1A collagenase to remove follicular cells and incubated in Barth's solution (in mM: 88 NaCl; 0.82 MgSO4; 0.33 Ca (NO3)2; 0.41 CaCl2; 2.4 NaHCO3; 10 HEPES, pH 7.4; 200 mosmol). After 16-24 hours, oocytes were injected with about 50 nl of mRNA or water and incubated in Barth's solution with gentamicin at about 18° C. for another three days after which uptake of ^14 C-urea was measured.
(§2) Unlabelled urea was deionized by passing it through an ion exchange column (AG501-X8 (D), 20-50 Mesh, Bio Rad) immediately before use. The uptake solution consisted of 2 microcuries ^14 C-urea; 1 mM urea; 200 mM mannitol; […]; 1 mM MgCl2; 1 mM CaCl2; 10 mM HEPES; and 5 mM TRIS, unless otherwise specified. In all uptake experiments oocytes were pre-incubated in uptake solution minus urea for one hour. After completion of the uptake, oocytes were washed with ice-cold wash solution (uptake solution without the labelled urea), dissolved in 10% SDS and used for scintillation counting.
Urea transport in the mammalian kidney is generally considered to be passive, although there is some evidence for active ion coupled transport. In studies addressing ion dependencies, urea uptake was measured in oocytes injected with urea transporter cRNA, as described above in Example 1. In the incubation solution, however, mannitol was replaced by NaCl (100 mM), choline chloride (100 mM) or sodium acetate (100 mM).
To study the uptake inhibition by phloretin, phloretin (Sigma) was dissolved in ethanol at 0.5M and added to the uptake solution to give the desired final concentration of 0.35 mM and 0.70 mM. The concentration of ethanol was no more than 0.1%. Ethanol at the same concentration is added to uptake solution without phloretin. Following 15 min pre-incubation in phloretin, ^14 C-urea was added and urea flux was then measured during 90 seconds.
For inhibition studies using urea analogues, all analogues were deionized as described in Example 1 immediately before use. […] Chou and Knepper, 257 Am. J. Physiol. F359-365 (1989).
It is possible that facilitation of urea transport by vasopressin is the result of direct phosphorylation of the transporter or of recruitment of functional transporters from intracellular vesicle pools.

[2] = system: urea transport in UT1 cRNA-injected oocytes; test: 14C-urea uptake into Xenopus oocytes injected with UT1 cRNA; assay type: cell-based, Xenopus laevis
Procedure: as §1, §2

[3] = system: urea transport induced by rabbit kidney medulla poly(A)+ RNA; test: 14C-urea uptake into Xenopus oocytes injected with poly(A)+ RNA from rabbit kidney medulla; assay type: cell-based; details: phloretin 0.25 mM, 14C-urea 50 mM
Procedure: Messenger RNA, fractionated as above, was collected in 0.6 ml fractions. In preliminary experiments, uptake of ^14 C-labelled urea (50 mM) was measured three days after injection at 5, 30 and 60 minute intervals. […] Phloretin at 0.25 mM inhibited the 30 minute uptake of urea by approximately 50%.

[4] = target: T1, urea transporter polypeptide; test: Two-microelectrode voltage clamp on urea transporter cRNA-injected oocytes; assay type: cell-based, rabbit; details: urea 1 and 100 mM; holding potential -60 mV
Procedure: Electrophysiological studies are in agreement with this finding. Electrophysiological measurements were made on oocytes 3-4 days after injection with urea transporter cRNA-injected oocytes using conventional two-microelectrode voltage clamp methods (Axoclamp-2A, Axon Instruments). Membrane current was measured in a standard bath of 96 mM NaCl; 2 mM KCl; 1.8 mM CaCl2; 1.0 mM MgCl2; and 5 mM HEPES, pH 7.4, at a holding potential of -60 mV.

[5] = system: water-injected control oocytes; details: not told, 1000 µM
Procedure: as §1, §2

[6] = read-out: inhibition of urea uptake

Molecule: CNC(=O)NC [1,3 dimethylurea, 1,3-dimethylurea]
inhibition of urea transport by urea analogues ([1]; 14C-urea 1 mM): 65%

Molecule: [Cl-].[Na+] [NaCl]
effect on urea uptake of replacing mannitol in the incubation solution [1]: did not alter urea uptake

Molecule: Nc1ncnc2c1ncn2C1OC2COP(O)(=S)OC2C1O (stereo not shown) [Sp-cAMPS]
effect of cAMP analogues on urea transporter-facilitated urea transport [1]: no effect

Molecule: NC(N)=S [Thiourea, thiourea]
inhibition of urea transport by urea analogues ([1]; 14C-urea 1 mM): 38%

Molecule: C[N+](C)(C)CCO.[Cl-] [choline chloride]
effect on urea uptake of replacing mannitol in the incubation solution [1]: no effect

Molecule: O=C(CCc1ccc(O)cc1)c1c(O)cc(O)cc1O [phloretin]
phloretin sensitivity of UT1-induced urea transport [2]: not phloretin-sensitive
inhibition at 350 µM [1, 6]: 48%
inhibition at 700 µM [1, 6]: 78%
inhibition at 350 µM ([1]; read-out: inhibition of urea uptake (phloretin-sensitivity of clone pool)): ~50%
inhibition of the 30 minute uptake of urea [3]: approximately 50%

Molecule: CC(=O)O [sodium acetate]
effect on urea uptake of replacing mannitol in the incubation solution [1]: no effect

Next, values leading:

inhibition of urea transport by urea analogues ([1]; 14C-urea 1 mM): no significant effect
Molecule: CN(C)C(N)=O [1,1-dimethylurea]

effect of cAMP analogues on urea transporter-facilitated urea transport [1]: no effect
Molecule: Nc1ncnc2c1nc(Br)n2[C@@H]1O[C@@H]2COP(=O)(O)O[C@H]2[C@H]1O [8-bromo-cAMP]

inhibition of urea transport by urea analogues ([1]; 14C-urea 1 mM): 38%
Molecule: CNC(N)=O [N-methylurea]

inhibition of urea transport by urea analogues ([1]; 14C-urea 1 mM): no significant effect
Molecule: CC(N)=O [acetamide]

effect of cAMP analogues on urea transporter-facilitated urea transport [1]: no effect
Molecule: CCCC(=O)Nc1ncnc2c1ncn2[C@@H]1O[C@@H]2COP(=O)(O)O[C@H]2[C@H]1OC(=O)CCC [dibutyryl cyclic-AMP]

membrane current evoked by bath applied urea [4]: did not evoke a significant current
maximum uptake of 14C-urea ([1]; 14C-urea 1 mM, between 10 and 30 minutes): approximately 250 pmoles/oocyte
saturation of urea transporter polypeptide-mediated urea transport ([1]; concentration range between 1 and 200 mM urea): no saturation
urea permeability of urea transporter-injected oocytes ([1]; not told, 1000 µM): 4.5e-05 cm/s
permeability of water-injected control oocytes for urea [5]: 1.9e-06 cm/s
Molecule: NC(N)=O [urea]

increase of the permeability of oocytes to urea ([1]; versus water-injected control oocytes): 23 fold
B1: urea transporter: 397-amino acid residue membrane glycoprotein from rabbit kidney medulla (SEQ ID NO.: 2), expressed from UT2 cRNA (protein)
chain: MEDSSEIKVETASSRTSWIQSSVAAGGKRISRALGYITGEMKECAEGLKDKSPVFQFLDWVLRGTSQVMFVNNPLSGILIVIGLFVQNPWWAIAGCLGTVMSTLTALILSQDRSAIASGLHGYNGVLVGLLIAVFSDKGDYYWWLLLPVIVMSMSCPILSSALGTIFSKWDLPVFTLPFNIAVTLYLAATGHYNLFFPTTLLQPVSSVPNITWSEIQVPLLLRAIPVGIGQVYGCDNPWTGGIFLIALFISSPLICLHAAIGSTMGMLAALTIATPFDSIYFGLCGFNSTLACIAVGGMFYVITWQTHLLAVACALFAAYVGAALTNVLSVFGLPTCTWPFCISALIFLLLTTNNPAIYKLPLSKVTYPEANRTYYLTQERNRRSSTITKYQAYDVS
modifications: glycosylated
